Values quoted from earlier work as cited in patent US20140023728A1, “Iodine Liquid Soap, Dispenser and Method” (priority 2012, published 2014).
Like-named read-outs stand apart in the source and are kept apart here.

Compound: II [Elemental iodine, iodine]
- volume of water in which one gram dissolves (one gram in water at 20 degrees Celsius): 3450 mL
- volume of water in which one gram dissolves (one gram in water at 50 degrees Celsius): 1280 mL
